Tests used:
C. elegans = C. elegans lifespan assay; format: in vivo
Experimental: Thus, the presence of resveratrol in the growth media of C. elegans extends their lifespan.
Bristol N2 (Caenorhabditis Genetics Center) was used as the wild-type strain. The sir-2.1 mutant strain was generated by backcrossing VC199 (sir-2.1 (ok434)) to N2 four times. Cultures were grown on standard NGM media and maintained on E. coli strain OP50. For the lifespan assays, synchronized animals were transferred to treatment plates as young adults (2 d after hatching, day 0 of assay), and were transferred to fresh treatment plates every 2 days for the first 6 to 8 days of the assay. […] For some lifespan trials, heat-killed OP50 were used as a food source. OP50 cultures were heated to 65° C. for 30 minutes, then pelleted and resuspended in 1/10 volume in S Basal supplemented with 10 mM MgSO4. In all assays, worms were monitored daily for mortality by gently probing with a platinum pick. Assays were performed at 24° C.

Human recombinant SIRT2 = biological target: T1, Human recombinant SIRT2 (Homo sapiens, UniProt Q8IXJ6); assay: SIRT2 deacetylation assay (Fluor de Lys-SIRT2); format: biochemical; settings: 25 μM Fluor de Lys-SIRT2, 25 μM NAD+, 20 minutes, 37° C.
T1 sequence (Q8IXJ6 1-389): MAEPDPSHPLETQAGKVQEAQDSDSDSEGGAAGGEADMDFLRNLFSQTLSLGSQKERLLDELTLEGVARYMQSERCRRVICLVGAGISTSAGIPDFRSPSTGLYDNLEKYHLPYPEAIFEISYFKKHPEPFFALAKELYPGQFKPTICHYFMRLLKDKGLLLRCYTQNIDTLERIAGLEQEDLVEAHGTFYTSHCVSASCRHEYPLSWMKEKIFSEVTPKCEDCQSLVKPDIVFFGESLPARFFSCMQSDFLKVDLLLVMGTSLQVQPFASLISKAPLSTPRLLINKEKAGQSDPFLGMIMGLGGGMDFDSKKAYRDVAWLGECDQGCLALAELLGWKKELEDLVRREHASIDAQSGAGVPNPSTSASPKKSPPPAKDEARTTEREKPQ
Description: Yeast Sir2 and human SIRT1 are very homologous and differ from human SIRT2 by the addition of an N-terminal domain that is absent in SIRT2. […] Thus, based on the difference in structure of SIRT1 and SIRT2, i.e., the absence of an N-terminal domain (see FIG. 8), it is believed that the N-terminal domain of SIRT1 and Sir2 is necessary for activation by the compounds described herein. In particular, it is likely that the activator compounds described herein interact with the N-terminal portion of sirtuins. The N-terminal portion of SIRT1 that is necessary for the action of the compounds is from about amino acid 1 to about amino acid 176, and that of Sir2 is from about amino acid 1 to about amino acid 175.

Human 293 cells = assay: Survival of 293 cells (Coulter counter); format: cell-based; settings: 50 micromolar
Experimental: Human 293 were grown to exponential phase under standard conditions and subjected to a dose of compound (50 micromolar) for 96 hours. The number of live cells each time point was counted using a Coulter counter.

[1] = D. melanogaster body mass; format: in vivo; settings: 10 μM, 15% SY diet
Experimental: Feeding rate was measured in yw females with the crop-filling assay^27. […] The presence of dye-marked food in the crop was scored in sets of 20 females across five 5-minute intervals. […] Males and females were weighed daily.

rDNA silencing = assay: Ribosomal DNA silencing assay (URA3 reporter); format: cell-based, S. cerevisiae
Experimental: Ribosomal DNA silencing assays using the URA3 reporters were performed as previously described^26. Ribosomal DNA recombination frequencies were determined by plating W303AR cells^37 on YPD medium with low adenine/histidine and counting the fraction of half-red sectored colonies using Bio-Rad Quantity One software as previously described^35. At least 6000 cells were analyzed per experiment and all experiments were performed in triplicate. All strains were pre-grown for 15 hours with the relevant compound prior to plating.

recombinant SIR-2.1 = biological target: T2, recombinant SIR-2.1 (Caenorhabditis elegans, UniProt Q21921); assay: SIR-2.1 deacetylation assay (Fluor de Lys)
T2 sequence (Q21921 1-607): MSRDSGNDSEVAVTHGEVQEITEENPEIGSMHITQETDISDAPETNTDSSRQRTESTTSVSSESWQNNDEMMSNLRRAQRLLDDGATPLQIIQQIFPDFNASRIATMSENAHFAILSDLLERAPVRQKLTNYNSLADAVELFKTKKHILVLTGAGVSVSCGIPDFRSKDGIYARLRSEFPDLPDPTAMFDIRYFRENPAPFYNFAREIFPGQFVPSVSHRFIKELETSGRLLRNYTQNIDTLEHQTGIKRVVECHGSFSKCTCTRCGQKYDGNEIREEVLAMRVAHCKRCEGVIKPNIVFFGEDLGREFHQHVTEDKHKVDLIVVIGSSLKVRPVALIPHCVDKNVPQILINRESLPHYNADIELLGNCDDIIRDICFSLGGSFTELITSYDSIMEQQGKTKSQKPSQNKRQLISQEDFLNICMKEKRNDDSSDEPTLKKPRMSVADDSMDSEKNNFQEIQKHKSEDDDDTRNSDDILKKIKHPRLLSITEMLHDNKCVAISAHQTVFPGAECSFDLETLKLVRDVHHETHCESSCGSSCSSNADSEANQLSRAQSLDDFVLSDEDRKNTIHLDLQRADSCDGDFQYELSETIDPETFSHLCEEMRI

Oc1ccc(/C=C/c2cc(O)cc(O)c2)cc1 [Resveratrol, 3,5,4′-Trihydroxy-trans-stilbene]
lifespan extension (C. elegans; sir-2.1 mutants, 100 μM, heat-killed OP50, not statistically significant): 5.2%
lifespan extension (C. elegans; sir-2.1 mutants, 100 μM, live OP50, P=0.81): 3.3%
lifespan extension (C. elegans; wild-type N2, 100 μM, live OP50): 12.6%
lifespan extension (up to) (C. elegans; wild-type worms, 100 μM, heat-killed or live E. coli): up to 15%
effect of increasing concentrations on SIRT2 activity (Human recombinant SIRT2): decrease
Survival of 293 cells (Human 293 cells; 0 h): 100%
Survival of 293 cells (Human 293 cells; 48 h): 5%
Survival of 293 cells (Human 293 cells; 96 h): 0%
body weight [1]: normal weight
effect on rDNA silencing (rDNA silencing): only minor effects
effect on Km of SIR-2.1 for NAD+ (recombinant SIR-2.1; 100 μM resveratrol, 10 μM Fluor de Lys): lowered
stimulation of deacetylation, SIR-2.1 (up to) (recombinant SIR-2.1; dose-dependent, 200 μM NAD+, 10 μM FdL): up to 2.5 fold

From patent US7544497B2, “Compositions for manipulating the lifespan and stress response of cells and organisms” (President and Fellows of Harvard College, priority 2003, dated 2009)
